# Reference: patent publication US20080159980A1, “Combination cancer therapy with a GST-activated anticancer compound and another anticancer therapy” (Telik, Inc., priority 2002, published 2008)
# Read-outs that look alike come from different tables or passages of the source.
# Tests used:
# [1] = molecular target: T1, GST M1a-1a (Homo sapiens, UniProt P09488); details: cited from earlier work
# T1 sequence (P09488 1-218): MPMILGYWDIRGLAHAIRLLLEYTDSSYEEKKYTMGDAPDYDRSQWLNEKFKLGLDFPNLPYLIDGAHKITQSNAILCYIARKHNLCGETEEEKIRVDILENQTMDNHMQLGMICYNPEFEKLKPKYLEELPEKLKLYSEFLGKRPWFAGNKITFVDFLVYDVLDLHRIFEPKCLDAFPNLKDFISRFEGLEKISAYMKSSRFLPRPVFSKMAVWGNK
# [2] = molecular target: GST P1-1 (Homo sapiens, UniProt P09211); details: releases cytotoxic phosphorodiamidate mustard moiety; cited from earlier work
# Sequence of GST P1-1 (P09211 2-210 limits assumed): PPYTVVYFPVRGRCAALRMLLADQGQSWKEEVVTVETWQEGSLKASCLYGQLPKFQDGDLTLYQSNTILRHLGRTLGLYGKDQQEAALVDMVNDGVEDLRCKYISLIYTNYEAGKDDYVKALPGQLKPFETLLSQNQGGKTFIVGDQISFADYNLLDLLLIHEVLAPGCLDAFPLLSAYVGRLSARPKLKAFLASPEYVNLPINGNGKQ
# [3] = molecular target: T2, GST A1-1 (Homo sapiens, UniProt P08263); details: cited from earlier work
# T2 sequence (P08263 2-222 limits assumed): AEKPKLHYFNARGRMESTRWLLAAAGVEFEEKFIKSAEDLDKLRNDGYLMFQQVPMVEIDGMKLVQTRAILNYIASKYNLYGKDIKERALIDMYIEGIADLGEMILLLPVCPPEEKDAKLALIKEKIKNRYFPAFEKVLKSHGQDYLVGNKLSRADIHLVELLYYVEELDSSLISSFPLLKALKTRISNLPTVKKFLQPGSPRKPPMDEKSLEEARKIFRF
# [4] = tested on: human breast cancer cell line MX-1; assay: MX-1 cell growth, method similar to Example 2 (Example 9); assay type: cell-based; details: MX-1 cells
# [5] = tested on: human colon cancer cell line DLD-1; assay: cells; assay type: cell-based; details: DLD-1, read-out: IC20 (concentration of TLK286 used in FIG. 2)
# Procedure: (§1) Assay methods. All assays were conducted in triplicate wells, with solvent control. The extent of cell growth was expressed as a percentage of the signal from the solvent control wells. The means were computed and graphed, with the standard deviations shown as error bars.
# The human colon cancer cell line DLD-1 was seeded at 4×10^4 cells/mL, 150 μL/well, and allowed to attach to the wells overnight. The diluted compounds or solvent controls were then added at 50 μL/well. Incubation with TLK286 alone and in combination with oxaliplatin was continued for approximately four cell doublings, and cell viability was determined using the CellTiter-Glo assay (Promega Corporation, Madison, Wis., U.S.A.), used in accordance with the assay kit directions. […] The results were further analyzed using the Combination Index (CI) method with the “CalcuSyn” program from Biosoft.
# [6] = tested on: MCF-7 human breast carcinoma cell line selected for resistance to cyclophosphamide; details: cyclophosphamide-resistant line overexpressing GST P1-1; Morgan et al. 1998; cited from earlier work
# [7] = tested on: M6709 human colon carcinoma cell line selected for resistance to doxorubicin; details: doxorubicin-resistant line overexpressing GST P1-1; Morgan et al. 1998; cited from earlier work
# [8] = tested on: in vitro cell culture and tumor biopsies; details: Rosario et al. 2000; cited from earlier work
# [9] = tested on: ovarian, breast, non-small cell lung, and colorectal cancers
# [10] = tested on: human lung cancer cell line A-549; assay: cells; assay type: cell-based; details: A549, read-out: IC50 (concentration of TLK286 used in FIG. 5)
# [11] = tested on: human breast cancer cell line MCF-7; assay: MCF-7 cell proliferation, BrdU chemiluminescence assay (Example 4); assay type: cell-based
# Procedure: as §1
# MCF-7 was seeded at 4×10^4 cells/mL, 150 μL/well, and allowed to attach to the wells for 4-5 hours. The diluted compounds or solvent controls were then added at 50 μL/well. Incubation with TLK286 alone and in combination with docetaxel was continued for one doubling, and cell proliferation was determined using the BrdU (chemiluminescence) assay, by labeling with BrdU (Roche Diagnostics Corporation, Indianapolis, Ind., U.S.A.) overnight. The assay is based on the incorporation of BrdU, an analogue of thymidine, during DNA synthesis. The incorporation of BrdU, which reflects the extent of cell proliferation, was then quantitated with an ELISA kit (also from Roche Diagnostics Corporation). The results were analyzed according to the Combination Index method.
# [12] = tested on: human non-Hodgkin's B cell lymphoma cell line RL; assay: RL cell growth, method similar to Example 2 (Example 8); assay type: cell-based; details: RL cells
# [13] = tested on: murine xenografts of M7609 engineered to have high, medium, and low levels of GST P1-1; details: Morgan et al. 1998; cited from earlier work
# [14] = tested on: human ovarian cancer cell line OVCAR-3; assay: OVCAR-3 cell viability, Wst-1 assay (Example 1); assay type: cell-based; details: OVCAR-3, Wst-1, approximately three cell doublings
# Procedure: as §1
# The diluted compounds or solvent controls were then added at 50 μL/well. […] The results were further analyzed using the Combination Index (CI) method with the “CalcuSyn” program from Biosoft.
# [15] = tested on: human ovarian cancer cell line OVCAR-3
# Procedure: The results were analyzed according to the Combination Index method with the “CalcuSyn” program from Biosoft.
smiles,measurement,setting,value
"N[C@@H](CCC(=O)N[C@@H](CS(=O)(=O)CCOP(=O)(N(CCCl)CCCl)N(CCCl)CCCl)C(=O)NCC(=O)O)C(=O)O [TLK231, L-γ-glutamyl-3-[[2-[[bis[bis(2-chloroethyl)amino]phosphinyl]oxy]ethyl]sulfonyl]-L-alanyl-glycine]",activation by GST isoenzyme,[1],activated
"N[C@@H](CCC(=O)N[C@@H](Cc1cccc(S(=O)(=O)CCOP(=O)(N(CCCl)CCCl)N(CCCl)CCCl)c1)C(=O)NCC(=O)O)C(=O)O [TLK296, L-γ-glutamyl-3-[[2-[[bis[bis(2-chloroethyl)amino]phosphinyl]oxy]ethyl]sulfonyl]-L-phenylalanyl-glycine]",activation by GST isoenzyme,[2],activated
"C[C@@](NC(=O)[C@H](CS(=O)(=O)CCOP(=O)(N(CCCl)CCCl)N(CCCl)CCCl)NC(=O)CC[C@H](N)C(=O)O)(C(=O)O)c1ccccc1 [TLK303, L-γ-glutamyl-3-[[2-[[bis[bis(2-choroethyl)-amino]phosphinyl]oxy]ethyl]sulfonyl]-L-alanyl-2-phenyl-(2S) -alanine]",activation by GST isoenzyme,[3],activated
COc1cc2ncnc(Nc3ccc(F)c(Cl)c3)c2cc1OCCCN1CCOCC1 [gefitinib],IC30 (concentration of gefitinib used in FIG. 9),[4],~2.0 µM
"N[C@@H](CCC(=O)N[C@@H](CS(=O)(=O)CCOP(=O)(N(CCCl)CCCl)N(CCCl)CCCl)C(=O)N[C@@H](C(=O)O)c1ccccc1)C(=O)O [TLK286, L-γ-glutamyl-3-[[2-[[bis[bis (2-chloroethyl)amino]phosphinyl]oxy]ethyl]sulfonyl]-L-alanyl-2-phenyl-(2R)-glycine]",IC20,[5],~9 µM
same,potency in resistant line over parental cell line,[6],more potent
same,activation by GST isoenzyme,[3],activated
same,activation by GST isoenzyme,[2],activated
same,potency in resistant line over parental cell line,[7],more potent
same,"cross-resistance to platinum, paclitaxel, doxorubicin and gemcitabine",[8],non-cross-resistant
same,single agent clinical activity,[9]; colorectal and breast cancer,single agent antitumor activity
same,single agent clinical activity,[9]; patients with non-small cell lung cancer and ovarian cancer,significant single agent antitumor activity and improvement in survival
same,IC50,[10],~4 µM
same,IC40 (concentration of TLK286 used in FIG. 4),"[11]; MCF-7, BrdU incorporation, one doubling",~3.3 µM
same,IC25 (concentration of TLK286 used in FIG. 8),[12],~4.6 µM
same,potency in xenografts versus GST P1-1 level,[13],positively correlated with the level of GST P1-1
same,IC30 (concentration of TLK286 used in FIG. 1),[14],~3.1 µM
same,IC10 (concentration of TLK286 used in FIG. 3),[15],~1.7 µM
"CC(=O)O[C@@]12CO[C@@H]1C[C@H](O)[C@@]1(C)C(=O)[C@H](O)C3=C(C)[C@@H](OC(=O)[C@H](O)[C@@H](NC(=O)OC(C)(C)C)c4ccccc4)C[C@@](O)([C@@H](OC(=O)c4ccccc4)[C@H]21)C3(C)C [docetaxel, reference compound]",inhibition of proliferation at top of concentration range,"[11]; MCF-7, BrdU, docetaxel about 0.8 to 3 nM, from nearly no effect",~60%
